# Source: ChEMBL document CHEMBL1649276, “Phenylbutyrate induces antimicrobial peptide expression” (2009)
# Active and inactive are the calls of the source. The rule behind the calls is not given here.
# What was measured:
# [1] = test system: VA10; assay: Induction of CAMP mRNA expression in human VA10 cells at 4 mM after 24 hrs by RT-PCR analysis; format: functional, cell-based
# [2] = test system: VA10; assay: Induction of LL-37 protein expression in human VA10 cells at 4 mM after 24 hrs by Western blotting; format: functional, cell-based
# [3] = test system: VA10; assay: Induction of CAMP mRNA expression in human VA10 cells after 48 hrs by RT-PCR analysis; format: functional, cell-based
# [4] = test system: U-937; assay: Induction of DEFB1 mRNA expression in human U937 cells at 4 mM after 24 to 48 hrs by RT-PCR analysis; format: functional, cell-based
# [5] = test system: VA10; assay: Induction of CAMP mRNA expression in human VA10 cells at 4 mM after 24 hrs by RT-PCR analysis in presence of p38 kinase inhibitor SB203580 treated 1 hr before compound challenge; format: functional, cell-based
# [6] = test system: VA10; assay: Induction of CAMP mRNA expression in human VA10 cells at 4 mM after 24 hrs by RT-PCR analysis in presence of protein synthesis inhibitor CHX treated 1 hr before compound challenge; format: functional, cell-based
# [7] = test system: VA10; assay: Induction of DEFB4 mRNA expression in human VA10 cells at 4 mM after 24 hrs by RT-PCR analysis; format: functional, cell-based
# [8] = test system: VA10; assay: Induction of CAMP mRNA expression in human VA10 cells at 4 mM after 24 hrs by RT-PCR analysis in presence of JNK inhibitor SP600125 treated 1 hr before compound challenge; format: functional, cell-based
# [9] = test system: VA10; assay: Induction of DEFB3 mRNA expression in human VA10 cells at 4 mM after 24 hrs by RT-PCR analysis; format: functional, cell-based
# [10] = Induction of CAMP mRNA expression in human VA10 cells at 4 mM after 24 hrs by RT-PCR analysis in presence of 1,25(OH)2D3 relative to control; format: functional
# [11] = test system: U-937; assay: Induction of CAMP mRNA expression in human U937 cells at 4 mM after 8 to 48 hrs by RT-PCR analysis; format: functional, cell-based
# [12] = test system: A498; assay: Induction of CAMP mRNA expression in human A498 cells at 4 mM after 8 to 48 hrs by RT-PCR analysis; format: functional, cell-based
# [13] = test system: HT-29; assay: Induction of CAMP mRNA expression in human HT-29 cells at 4 mM after 8 to 48 hrs by RT-PCR analysis; format: functional, cell-based
# [14] = test system: VA10; assay: Induction of DEFB1 mRNA expression in human VA10 cells at 4 mM after 24 hrs by RT-PCR analysis; format: functional, cell-based
# [15] = test system: VA10; assay: Induction of CAMP mRNA expression in human VA10 cells at 4 mM after 24 hrs by RT-PCR analysis in presence of ERK1/2 inhibitor U0126 treated 1 hr before compound challenge; format: functional, cell-based
# [16] = test system: VA10; assay: Induction of CAMP mRNA expression in human VA10 cells at 4 mM by RT-PCR analysis; format: functional, cell-based; conditions: TDE = time-dependent effect
# [17] = test system: VA10; assay: Induction of LL-37 protein expression in human VA10 cells at 20 nM after 24 hrs by Western blotting; format: functional, cell-based
# [18] = test system: VA10; assay: Induction of DEFB2 mRNA expression in human VA10 cells at 4 mM after 24 hrs by RT-PCR analysis; format: functional, cell-based
Structure (SMILES),Activity [1],Activity [2],Activity [3],Activity [4],Activity [5],Activity [6],Activity [7],Activity [8],Activity [9],fold change (FC) [10],Activity [11],Activity [12],Activity [13],Activity [14],Activity [15],Activity [16],Activity [17],Activity [18]
CCC(C)(C)C(=O)O,inactive,,,,,,,,,,,,,,,,,
O=C([O-])CCCc1ccccc1.[Na+] [SODIUM PHENYLBUTYRATE],Active,Active,Dose-dependent effect,inactive,inactive,inactive,inactive,inactive,inactive,100,Active,Active,Active,Active,inactive,tde,Active,inactive
CC(Cc1ccccc1)C(=O)O (stereo not given),Active,,,,,,,,,,,,,,,,,
